The results in this text go back to patent US9738637B2, “Histone demethylase inhibitors” (Quanticel Pharmaceuticals, Inc., priority 2013, dated 2017).

The IC50 is the concentration that inhibits the measured activity by half.

The structures appear in SMILES notation. Read-outs that look alike come from different tables or passages of the source.

Assay type in all cases: biochemical
One test addresses Jarid1B (Homo sapiens (Human), UniProt Q9UGL1). Briefly: Jarid1B in vitro enzyme inhibition assay (TR-FRET). As for the experimental part: (§1) This assay determines the ability of a test compound to inhibit Jarid1A, Jarid1B, JMJD2C, and JMJD2A demethylase activity.
The reaction mixture was incubated at room temperature for 30 minutes, and terminated by the addition of 6 μl of 5 mM EDTA in LANCE detection buffer containing 50 nM Phycolink Streptavidin-allophycocyanin and 2 nM Europium-anti-H3K4me1-2 antibody.
(§2) The ability of the compounds disclosed herein to inhibit demethylase activity was quantified and the respective IC50 value was determined.
A general note: In TR-FRET formats the signal depends on donor and acceptor labels being close together.

The target of the next test is Jarid1A (Homo sapiens (Human), UniProt P29375). Description: Jarid1A in vitro enzyme inhibition assay (TR-FRET). The settings on record: H3K4me3-biotin peptide. As for the experimental part:
as §1
The enzymatic assay of Jarid1A activity is based upon Time Resolved-Fluorescence Resonance Energy Transfer (TR-FRET) detection.
The assay reaction was initiated by the following: 2 μl of the mixture of 900 nM H3K4me3-biotin labeled peptide and 6 μM alpha-ketoglutaric acid with 2 μl of 11-point serial diluted inhibitor in 3% DMSO was added to each well of plate, followed by the addition of 2 μl of 3 nM Jarid1A to initiate the reaction. The reaction mixture was incubated at room temperature for 30 minutes, and terminated by the addition of 6 μl of 5 mM EDTA in LANCE detection buffer containing 50 nM Phycolink Streptavidin-allophycocyanin and 2 nM Europium-anti-H3K4me1-2 antibody.
as §2

Another test concerns the target JMJD2C (Homo sapiens (Human), UniProt Q9H3R0). Briefly: JMJD2C in vitro enzyme inhibition assay (TR-FRET). As for the experimental part:
as §1
Reaction product was determined quantitatively by TR-FRET after the addition of detection reagent Phycolink Streptavidin-allophycocyanin (Prozyme) and Europium-anti-di-methylated histone H3 lysine 9 (H3K9me2) antibody (PerkinElmer) in the presence of 5 mM EDTA in LANCE detection buffer (PerkinElmer) at a final concentration of 50 nM and 1 nM, respectively.
The assay reaction was initiated by the following: 2 μl of the mixture of 900 nM H3K9me3-biotin labeled peptide and 6 μM alpha-ketoglutaric acid with 2 μl of 11-point serial diluted inhibitor in 3% DMSO were added to each well of the plate, followed by the addition of 2 μl of 0.9 nM JMJD2C to initiate the reaction. The reaction mixture was incubated at room temperature for 30 minutes, and terminated by the addition of 6 μl of 5 mM EDTA in LANCE detection buffer containing 100 nM Phycolink Streptavidin-allophycocyanin and 2 nM Europium-anti-H3K9me2 antibody.
as §2

[1] abbreviates: TR-FRET, H3K4me3-biotin peptide, read-out: IC50 Jarid1B.
[2] abbreviates: TR-FRET, H3K9me3-biotin peptide, read-out: IC50 JNJD2C.

Jarid1B, sequence (Q9UGL1 2-751): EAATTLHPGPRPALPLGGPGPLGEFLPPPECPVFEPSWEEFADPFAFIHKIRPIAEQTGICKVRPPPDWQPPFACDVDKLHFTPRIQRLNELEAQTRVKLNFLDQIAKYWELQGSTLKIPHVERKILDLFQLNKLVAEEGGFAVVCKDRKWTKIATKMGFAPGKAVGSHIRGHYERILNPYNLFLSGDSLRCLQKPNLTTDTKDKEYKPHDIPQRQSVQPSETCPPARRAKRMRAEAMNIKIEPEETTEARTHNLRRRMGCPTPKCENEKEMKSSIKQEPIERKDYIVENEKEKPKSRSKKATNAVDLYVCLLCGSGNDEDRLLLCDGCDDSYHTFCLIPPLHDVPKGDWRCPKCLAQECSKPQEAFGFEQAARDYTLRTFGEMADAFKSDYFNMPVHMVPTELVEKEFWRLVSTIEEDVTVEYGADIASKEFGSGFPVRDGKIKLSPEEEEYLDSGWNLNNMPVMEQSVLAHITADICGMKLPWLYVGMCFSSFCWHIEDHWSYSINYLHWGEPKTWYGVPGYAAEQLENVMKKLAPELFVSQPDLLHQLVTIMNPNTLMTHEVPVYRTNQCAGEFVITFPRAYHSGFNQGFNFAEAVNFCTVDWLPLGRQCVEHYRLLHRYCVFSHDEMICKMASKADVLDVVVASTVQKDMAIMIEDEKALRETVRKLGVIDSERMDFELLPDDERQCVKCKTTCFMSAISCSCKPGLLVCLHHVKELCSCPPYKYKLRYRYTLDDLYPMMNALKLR
Jarid1A, sequence (P29375 1-1090): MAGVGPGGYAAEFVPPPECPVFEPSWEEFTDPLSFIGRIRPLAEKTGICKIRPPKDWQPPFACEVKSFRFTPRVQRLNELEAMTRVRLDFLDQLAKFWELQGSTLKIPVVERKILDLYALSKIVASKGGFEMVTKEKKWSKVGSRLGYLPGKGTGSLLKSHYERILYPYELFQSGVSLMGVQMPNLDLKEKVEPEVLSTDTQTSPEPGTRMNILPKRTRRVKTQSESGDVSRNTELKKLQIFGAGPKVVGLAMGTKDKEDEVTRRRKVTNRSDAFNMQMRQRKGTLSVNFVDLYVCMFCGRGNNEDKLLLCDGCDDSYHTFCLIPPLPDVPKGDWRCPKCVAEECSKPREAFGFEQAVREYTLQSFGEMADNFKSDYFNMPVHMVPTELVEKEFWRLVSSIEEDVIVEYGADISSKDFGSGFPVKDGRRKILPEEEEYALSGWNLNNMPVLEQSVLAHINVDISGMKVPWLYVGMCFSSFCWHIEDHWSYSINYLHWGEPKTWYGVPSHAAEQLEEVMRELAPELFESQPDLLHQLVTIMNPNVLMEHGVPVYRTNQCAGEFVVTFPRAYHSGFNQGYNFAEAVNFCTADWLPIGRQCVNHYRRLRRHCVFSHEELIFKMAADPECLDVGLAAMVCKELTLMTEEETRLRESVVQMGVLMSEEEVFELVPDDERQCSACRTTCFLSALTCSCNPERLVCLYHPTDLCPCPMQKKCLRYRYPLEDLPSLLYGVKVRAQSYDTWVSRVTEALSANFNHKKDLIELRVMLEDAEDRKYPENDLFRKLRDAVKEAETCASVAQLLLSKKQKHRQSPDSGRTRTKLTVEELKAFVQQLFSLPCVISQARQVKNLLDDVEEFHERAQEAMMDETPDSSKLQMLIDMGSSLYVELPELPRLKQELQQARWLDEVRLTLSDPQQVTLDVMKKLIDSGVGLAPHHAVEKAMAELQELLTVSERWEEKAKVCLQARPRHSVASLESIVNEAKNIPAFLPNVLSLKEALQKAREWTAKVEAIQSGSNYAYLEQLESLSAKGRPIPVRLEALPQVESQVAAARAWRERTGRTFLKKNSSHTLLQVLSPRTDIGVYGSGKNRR
JMJD2C, sequence (Q9H3R0 2-372): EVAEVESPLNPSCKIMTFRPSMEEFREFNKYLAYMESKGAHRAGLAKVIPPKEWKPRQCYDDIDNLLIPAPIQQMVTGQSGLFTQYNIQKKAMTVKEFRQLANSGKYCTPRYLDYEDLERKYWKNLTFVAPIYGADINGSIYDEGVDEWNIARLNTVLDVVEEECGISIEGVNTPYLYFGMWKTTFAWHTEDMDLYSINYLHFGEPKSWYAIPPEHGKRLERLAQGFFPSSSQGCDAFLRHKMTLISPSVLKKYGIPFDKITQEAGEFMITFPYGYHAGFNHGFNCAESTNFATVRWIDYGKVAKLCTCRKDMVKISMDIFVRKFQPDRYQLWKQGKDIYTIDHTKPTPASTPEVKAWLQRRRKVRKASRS

Take `O=C(O)c1ccnc2cc(C(=O)N3CCc4ccccc4C3)[nH]c12` [Example 122, 2-(2-1,2,3,4-tetrahydroisoquinolylcarbonyl)-pyrrolo[3,2-b]pyridine-7-carboxylic acid]: the concentration for half-maximal inhibition (IC50) was less than 100 nM on Jarid1B (setting [1]), less than 100 nM against Jarid1A and 100 to 1000 nM on JMJD2C (setting [2]).
`O=C(O)c1ccnc2cc(Cc3ccccc3Cl)[nH]c12` [Example 78, 2-[(2-chlorophenyl)methyl]-1H-pyrrolo[3,2-b]pyridine-7-carboxylic acid]: the IC50 at Jarid1B (setting [1]), at Jarid1A and at JMJD2C (setting [2]) was less than 100 nM throughout.
Take `COCc1cc2nccc(C(=O)O)c2[nH]1` [Example 41, 2-(methoxymethyl)-1H-pyrrolo[3,2-b]pyridine-7-carboxylic acid]: the IC50 at Jarid1B (setting [1]) was 100 to 1000 nM; against Jarid1A it was 100 to 1000 nM; on JMJD2C (setting [2]), less than 100 nM.
With `O=C(O)c1ccnc2cc(C(O)CC3CC3)[nH]c12` (racemic) [Example 38, (±)-2-(2-cyclopropyl-1-hydroxyethyl)-1H-pyrrolo[3,2-b]pyridine-7-carboxylic acid], the IC50 at Jarid1B (setting [1]), on Jarid1A and on JMJD2C (setting [2]) was less than 100 nM each time.
Turning to `O=C(O)c1ccnc2cc(C3CCCC3)[nH]c12` [Example 29, 2-cyclopentyl-1H-pyrrolo[3,2-b]pyridine-7-carboxylic acid], the IC50 on Jarid1B (setting [1]) is 100 to 1000 nM; at Jarid1A it was 100 to 1000 nM; on JMJD2C (setting [2]), less than 100 nM.
As for `COC(=O)c1ccnc2cc(C(O)c3ccccc3)[nH]c12` (racemic) [Example 19, (±)-methyl 2-[hydroxy(phenyl)methyl]-1H-pyrrolo[3,2-b]pyridine-7-carboxylate], the IC50 on Jarid1B is more than 10000 nM; at Jarid1A, 1000 to 10000 nM; against JMJD2C, more than 10000 nM.
With `O=C(O)c1ccnc2cc(Cc3ccc(Cl)cc3Cl)[nH]c12` [Example 90, 2-[(2,4-dichlorphenyl)methyl]-1H-pyrrolo[3,2-b]pyridine-7-carboxylic acid], the values for the half-inhibitory concentration (IC50) at Jarid1B (setting [1]), against Jarid1A and on JMJD2C (setting [2]) were less than 100 nM, less than 100 nM and 100 to 1000 nM, respectively.
As for `CC(O)c1cc2nccc(C(=O)O)c2[nH]1` (racemic) [Example 18, (±)-2-(1-hydroxyethyl)-1H-pyrrolo[3,2-b]pyridine-7-carboxylic acid], the IC50 was 100 to 1000 nM at Jarid1B (setting [1]), 100 to 1000 nM against Jarid1A and less than 100 nM on JMJD2C (setting [2]).
For `CC(c1ccc(F)cc1)c1cc2nccc(C(=O)O)c2[nH]1` (stereo not drawn) [Example 110, 2-[1-(4-fluorophenyl)ethyl]-1H-pyrrolo[3,2-b]pyridine-7-carboxylic acid], the IC50 on Jarid1B (setting [1]), at Jarid1A and at JMJD2C (setting [2]) was 100 to 1000 nM each time.
As to `CCC(O)c1cc2nccc(C(=O)OC)c2[nH]1` (racemic) [Example 25, (±)-methyl 2-(1-hydroxypropyl)-1H-pyrrolo[3,2-b]pyridine-7-carboxylate], the IC50 on Jarid1B (setting [1]), on Jarid1A and on JMJD2C (setting [2]) was more than 10000 nM throughout.
As to `O=C(O)c1ccnc2cc(COc3cc(F)cc(F)c3)[nH]c12` [Example 81, 2-[(3,5-difluorophenoxy)methyl]-1H-pyrrolo[3,2-b]pyridine-7-carboxylic acid], the IC50 on Jarid1B (setting [1]), against Jarid1A and at JMJD2C (setting [2]) was less than 100 nM throughout.
Take `O=C(O)c1ccnc2cc(CCc3ccccc3)[nH]c12` [Example 70, 2-(2-phenylethyl)-1H-pyrrolo[3,2-b]pyridine-7-carboxylic acid]: the IC50 is 100 to 1000 nM on Jarid1B (setting [1]), 100 to 1000 nM on Jarid1A and less than 100 nM at JMJD2C (setting [2]).
With `O=C(O)c1ccnc2cc(Cc3ccc(C(F)(F)F)cc3)[nH]c12` [Example 56, 2-[[4-(trifluoromethyl)phenyl]methyl]-1H-pyrrolo[3,2-b]pyridine-7-carboxylic acid], the IC50 at Jarid1B (setting [1]), against Jarid1A and on JMJD2C (setting [2]) was 100 to 1000 nM throughout.
Regarding `CCCc1cc2nccc(C(=O)O)c2[nH]1` [Example 8, 2-propyl-1H-pyrrolo[3,2-b]pyridine-7-carboxylic acid], the IC50 on Jarid1B (setting [1]) was 1000 to 10000 nM; at Jarid1A, 1000 to 10000 nM; on JMJD2C (setting [2]), less than 100 nM.
`COC(=O)c1ccnc2cc(C3(O)CCCCC3)[nH]c12` [Example 13, methyl 2-(1-hydroxycyclohexyl)-1H-pyrrolo[3,2-b]pyridine-7-carboxylate]: the concentration for half-maximal inhibition (IC50) at Jarid1B (setting [1]), against Jarid1A and on JMJD2C (setting [2]) was more than 10000 nM throughout.
In the case of `Cc1cccc(C(O)c2cc3nccc(C(=O)O)c3[nH]2)c1` (racemic) [Example 22, (±)-2-[hydroxy-(3-methylphenyl)methyl]-1H-pyrrolo[3,2-b]pyridine-7-carboxylic acid], the IC50 on Jarid1B (setting [1]), against Jarid1A and at JMJD2C (setting [2]) was less than 100 nM throughout.
As to `O=C(O)c1ccnc2cc(C(O)c3ccccc3)[nH]c12` (racemic) [Example 20, (±)-2-[hydroxy(phenyl)methyl]-1H-pyrrolo[3,2-b]pyridine-7-carboxylic acid], the IC50 on Jarid1B (setting [1]), at Jarid1A and at JMJD2C (setting [2]) was less than 100 nM throughout.
Regarding `COC(=O)c1ccnc2cc(C(O)c3cccc(C)c3)[nH]c12` (racemic) [Example 21, (±)-Methyl 2-[hydroxy-(3-methylphenyl)methyl]-1H-pyrrolo[3,2-b]pyridine-7-carboxylate], the IC50 on Jarid1B (setting [1]) was more than 10000 nM; against Jarid1A, 1000 to 10000 nM; on JMJD2C (setting [2]), more than 10000 nM.
Turning to `CC(Oc1ccccc1)c1cc2nccc(C(=O)O)c2[nH]1` (racemic) [Example 84, (±)-2-(1-phenoxyethyl)-1H-pyrrolo[3,2-b]pyridine-7-carboxylic acid], the IC50 at Jarid1B (setting [1]), at Jarid1A and at JMJD2C (setting [2]) was less than 100 nM in each case.
Take `O=C(O)c1ccnc2cc(CC3CCCC3)[nH]c12` [Example 52, 2-(cyclopentylmethyl)-1H-pyrrolo[3,2-b]pyridine-7-carboxylic acid]: the IC50 was 100 to 1000 nM at Jarid1B (setting [1]), less than 100 nM on Jarid1A and less than 100 nM at JMJD2C (setting [2]).
In the case of `O=C(O)c1ccnc2cc(C(=O)N3CCc4ccccc43)[nH]c12` [Example 107, 2-(indolinylcarbonyl)pyrrolo[3,2-b]pyridine-7-carboxylic acid], the IC50 at Jarid1B (setting [1]) is less than 100 nM; at Jarid1A, less than 100 nM; at JMJD2C (setting [2]) it was 100 to 1000 nM.
With `O=C(O)c1ccnc2cc(COc3cccc(Cl)c3)[nH]c12` [Example 80, 2-[(3-chlorophenoxy)methyl]-1H-pyrrolo[3,2-b]pyridine-7-carboxylic acid], the half-maximal inhibitory concentration (IC50) on Jarid1B (setting [1]) was less than 100 nM; on Jarid1A, less than 100 nM; at JMJD2C (setting [2]) it was 100 to 1000 nM.
For `Cc1ccc(OCc2cc3nccc(C(=O)O)c3[nH]2)cc1` [Example 62, 2-[(4-methylphenoxy)methyl]-1H-pyrrolo[3,2-b]pyridine-7-carboxylic acid], the IC50 on Jarid1B (setting [1]), at Jarid1A and on JMJD2C (setting [2]) was 100 to 1000 nM throughout.
With `CC(O)(c1ccc(F)cc1)c1cc2nccc(C(=O)O)c2[nH]1` (stereo not drawn) [Example 103, 2-[1-(4-fluorophenyl)-1-hydroxyethyl]-1H-pyrrolo[3,2-b]pyridine-7-carboxylic acid], the half-inhibitory concentration (IC50) on Jarid1B (setting [1]), on Jarid1A and on JMJD2C (setting [2]) was less than 100 nM throughout.
